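Dose response: 5 concentrations. Exposure: 48 h. Format: 96-well plates. Endpoint: linear interpolation; highest concentration if not reached. GI50: concentration for 50% inhibition of growth.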 The source made the active and inactive calls. Cut-off read from the data, not from the text of the source: active = GI50 up to about 1.1 µM and inactive = higher.
Assays:
Experiment in all cases: NCI anticancer screen, dose series, 48 h
[1] = tested on: 786-0
[2] = tested on: A498
[3] = tested on: HCC 2998
[4] = tested on: HL-60
[5] = tested on: HOP-62
[6] = tested on: Hs-578T
[7] = tested on: KM12
[8] = tested on: LOX IMVI
[9] = tested on: MDA-N
[10] = tested on: MOLT-4
[11] = tested on: Malme-3M
[12] = tested on: NCI/ADR-RES
[13] = tested on: OVCAR-4
[14] = tested on: SK-MEL-28
[15] = tested on: SK-MEL-5
[16] = tested on: T47D
[17] = tested on: U-251
[18] = tested on: UO-31
[19] = tested on: MCF7

SMILES | GI50 [1] | GI50 [2] | GI50 [3] | GI50 [4] | GI50 [5] | GI50 [6] | GI50 [7] | GI50 [8] | GI50 [9] | GI50 [10] | GI50 [11] | GI50 [12] | GI50 [13] | GI50 [14] | GI50 [15] | GI50 [16] | GI50 [17] | GI50 [18] | GI50 [19]
CCN(CC)C(=S)SNCc1ccc(S(N)(=O)=O)cc1 | 14.3 µM (inactive) | > 57.1 µM (inactive) | 36 µM (inactive) | 4.54 µM (inactive) | 15.4 µM (inactive) | 19.8 µM (inactive) | 14.9 µM (inactive) | 13.5 µM (inactive) | 15.6 µM (inactive) | 8.97 µM (inactive) | 15.3 µM (inactive) | 18.9 µM (inactive) | 18.7 µM (inactive) | 18.2 µM (inactive) | 13.5 µM (inactive) | 16.4 µM (inactive) | 11.2 µM (inactive) | 13.1 µM (inactive) | 
COC1=N[C@H](C(C)C)C(OC)=N[C@H]1Cc1ccc(C[C@@H]2N=C(OC)[C@@H](C(C)C)N=C2OC)s1 | 45.6 µM (inactive) |  | 34.2 µM (inactive) |  | 54.8 µM (inactive) | 88.3 µM (inactive) | 38.6 µM (inactive) | 48.6 µM (inactive) | 49.3 µM (inactive) | 20 µM (inactive) | 22.6 µM (inactive) | 52.6 µM (inactive) | 37.7 µM (inactive) | 34.7 µM (inactive) | 20.8 µM (inactive) | 13.5 µM (inactive) | 24 µM (inactive) | 45.4 µM (inactive) | 20.3 µM (inactive)
CCSC12OC3(CCCCCN3C1=O)C1C(=O)N(c3ccccc3)C(=O)C12 (stereo unspecified) | > 100 µM (inactive) | > 100 µM (inactive) |  | > 100 µM (inactive) |  | > 100 µM (inactive) | > 100 µM (inactive) | > 100 µM (inactive) | > 100 µM (inactive) | > 100 µM (inactive) | > 100 µM (inactive) | > 100 µM (inactive) | > 100 µM (inactive) | > 100 µM (inactive) | > 100 µM (inactive) | > 100 µM (inactive) | > 100 µM (inactive) | > 100 µM (inactive) | 
CN1N=C(c2ccncc2)OC1c1ccccc1F (stereo unspecified) | > 100 µM (inactive) | > 100 µM (inactive) | > 100 µM (inactive) | > 100 µM (inactive) | > 100 µM (inactive) | > 100 µM (inactive) | > 100 µM (inactive) | > 100 µM (inactive) | > 100 µM (inactive) | > 100 µM (inactive) |  | > 100 µM (inactive) | > 100 µM (inactive) | > 100 µM (inactive) | > 100 µM (inactive) | 51.8 µM (inactive) | > 100 µM (inactive) | > 100 µM (inactive) | 
CC(C)(C)OC(=O)N[C@@H](Cc1ccccc1)C(=O)N1CC[C@@H](C(=O)N2[C@H]3CC4CC[C@@]3(CS2(=O)=O)C4(C)C)N1 | > 100 µM (inactive) | > 100 µM (inactive) | 79.3 µM (inactive) | 75.5 µM (inactive) | 78.3 µM (inactive) | 46.8 µM (inactive) | 79.1 µM (inactive) | 75.9 µM (inactive) | 39.3 µM (inactive) | > 100 µM (inactive) |  | 62.5 µM (inactive) | 68.1 µM (inactive) | > 100 µM (inactive) | 24.6 µM (inactive) | 0.752 µM (active) | > 100 µM (inactive) |  | 
O=C(Nc1ccc(N2C(=O)CSC2c2ccccc2O)cc1)c1ccc(N2C(=O)CSC2c2ccccc2O)cc1 (stereo unspecified) | 43.7 µM (inactive) |  | > 100 µM (inactive) |  | 32.4 µM (inactive) | 71.9 µM (inactive) | > 100 µM (inactive) | 75.3 µM (inactive) | 83.8 µM (inactive) | > 100 µM (inactive) | 98.4 µM (inactive) | > 100 µM (inactive) | 67.6 µM (inactive) | 39.1 µM (inactive) | 77.4 µM (inactive) | 43.3 µM (inactive) | 34 µM (inactive) | 54.5 µM (inactive) | 46.3 µM (inactive)

From ChEMBL document CHEMBL1201862, “PubChem BioAssay data set” (2004)
